Assay results from patent publication US11279733B2, “Peptide antibiotics” (priority 2017, dated 2022).
≈ marks a conversion by molar mass, not a printed value. Where two headings read alike, the source gives them in different places. Positions of bridges follow the written chain, without caps; N, C: chain ends. Non-standard residues stand in square brackets, D forms with d. Residues, ends and D or L forms follow the SMILES beside them. *: point of attachment. dPhe(4-CN) = N#Cc1ccc(C[C@@H](N)C(=O)O)cc1; Decanoyl(3R-OH) = CCCCCCC[C@@H](O)CC(=O)*; dPhe(4-F) = N[C@H](Cc1ccc(F)cc1)C(=O)O; Nonanoyl = CCCCCCCCC(=O)*; dDab = NCC[C@@H](N)C(=O)O; dDap = NC[C@@H](N)C(=O)O; Dab = NCC[C@H](N)C(=O)O; Dap = NC[C@H](N)C(=O)O

Assays:
[1] = test system: K. pneumoniae GN_102 PmxR; details: GN 102 PmxR
How it was run: (§1)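 Mid-log cultures grown in Mueller Hinton broth at 37° C were tested by 2-fold broth microdilution at 5×10^5 CFU/mL final. Compounds were dissolved in water and tested over a final range of 32 to 0.015 μg/mL.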

[2] = test system: P. aeruginosa GN_043, PmxR
How it was run: as §1

[3] = test system: K. pneumoniae ATCC BAA-2146, NDM-1 pos; details: ATCC BAA-2146
How it was run: as §1

[4] = test system: K. pneumoniae GN_106, PmxR; details: GN 106, PmxR
How it was run: as §1

[5] = test system: K. pneumoniae ATCC 700603, MDR; details: ATCC 700603
How it was run: as §1

K. pneumoniae ATCC 13883 = details: ATCC 13883
How it was run: as §1

[6] = test system: S. aureus ATCC 25923, MSSA; details: ATCC 25923
How it was run: as §1

P. aeruginosa ATCC 27853 = details: ATCC 27853
How it was run: as §1

[7] = test system: P. aeruginosa GN_105, PmxR; details: GN 105, PmxR
How it was run: as §1

E. coli ATCC 25922 = details: ATCC 25922
How it was run: as §1

A. baumannii ATCC 19606 = details: ATCC 19606
How it was run: as §1

A. baumannii GN_093 PmxR = details: GN 093 PmxR
How it was run: as §1

in vitro = details: human
How it was run: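 Cells were seeded at 4000 per well and allowed to attach for 24 h at 37 °C, 5% CO2, then exposed to compounds for 24 h. Resazurin (5 μM) was added for 2 h at 37 °C and fluorescence read at 560/590 nm. CC50 was derived by curve fitting of dose-dependent growth inhibition.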

Row | SMILES | MIC K. pneumoniae GN_102 PmxR [1] [µg/mL] | MIC P. aeruginosa GN_043, PmxR ([2]; polymyxin-resistant) [µg/mL] | MIC K. pneumoniae ATCC BAA-2146, NDM-1 pos [3] [µg/mL] | MIC K. pneumoniae GN_106, PmxR [4] [µg/mL] | MIC K. pneumoniae ATCC 700603, MDR [5] [µg/mL] | MIC K. pneumoniae ATCC 13883 (K. pneumoniae ATCC 13883) [µg/mL] | MIC S. aureus ATCC 25923, MSSA [6] [µg/mL] | MIC P. aeruginosa ATCC 27853 (P. aeruginosa ATCC 27853) [µg/mL] | MIC P. aeruginosa GN_105, PmxR [7] [µg/mL] | MIC E. coli ATCC 25922 (E. coli ATCC 25922) [µg/mL] | MIC A. baumannii ATCC 19606 (A. baumannii ATCC 19606) [µg/mL] | MIC A. baumannii GN_093 PmxR (A. baumannii GN_093 PmxR) [µg/mL] | CC50 at 24 h (in vitro) [µM] | further results
1 | CCCCCCC[C@@H](O)CC(=O)N[C@H](CCN)C(=O)N[C@H]1CCNC(=O)[C@H](Cc2c[nH]c3ccccc23)NC(=O)[C@H](CCN)NC(=O)[C@H](CCN)NC(=O)[C@H](CC(C)C)NC(=O)[C@@H](Cc2ccc(F)cc2)NC(=O)[C@H](CCN)NC1=O [compound 8119, 3(R)OH-nC9CO-D-Dab-cyc[L-Dab-L-Dab-L-Dab-D-Phe(4-F)-L-Leu-L-Dab-L-Dab-L-Trp]] ({Decanoyl(3R-OH)}-[dDab][Dab][Dab][dPhe(4-F)]L[Dab][Dab]W; lactam 2-C) | 4 (≈ 3.52 µM) | 2 (≈ 1.76 µM) | 4 (≈ 3.52 µM) | 4 (≈ 3.52 µM) | 8 (≈ 7.05 µM) | 4 (≈ 3.52 µM) | 16 (≈ 14.1 µM) | 4 (≈ 3.52 µM) | 2 (≈ 1.76 µM) | 8 (≈ 7.05 µM) | 8 (≈ 7.05 µM) | 8 (≈ 7.05 µM) | 64 | 
2 | CCCCCCC[C@@H](O)CC(=O)N[C@H](CCCNC(=N)N)C(=O)N[C@H]1CCNC(=O)[C@H](Cc2c[nH]c3ccccc23)NC(=O)[C@H](CCN)NC(=O)[C@H](CCN)NC(=O)[C@H](CC(C)C)NC(=O)[C@@H](Cc2ccccc2)NC(=O)[C@H](CCN)NC1=O [compound 8884, nC10-3(R)OH-D-Arg-cyc[L-Dab-L-Dab-D-Phe-L-Leu-L-Dab-L-Dab-L-Trp]] ({Decanoyl(3R-OH)}-[dR][Dab][Dab][dF]L[Dab][Dab]W; lactam 2-C) | 32 (≈ 27.3 µM) | 4 (≈ 3.41 µM) | 8 (≈ 6.82 µM) | 16 (≈ 13.6 µM) | 4 (≈ 3.41 µM) | 16 (≈ 13.6 µM) | 16 (≈ 13.6 µM) | 4 (≈ 3.41 µM) | 16 (≈ 13.6 µM) | 4 (≈ 3.41 µM) | 32 (≈ 27.3 µM) | 32 (≈ 27.3 µM) | 73 | 
3 | CCCCCCC[C@@H](O)CC(=O)N[C@H](CCN)C(=O)N[C@H]1CCNC(=O)[C@H](Cc2c[nH]c3ccccc23)NC(=O)[C@H](CCN)NC(=O)[C@H](CCN)NC(=O)[C@H](CC(C)C)NC(=O)[C@@H](Cc2ccc(C#N)cc2)NC(=O)[C@H](CCN)NC1=O [compound 8105, 3(R)OH-nC9CO-D-Dab-cyc[L-Dab-L-Dab-L-Dab-D-Phe(4-CN)-L-Leu-L-Dab-L-Dab-L-Trp]] ({Decanoyl(3R-OH)}-[dDab][Dab][Dab][dPhe(4-CN)]L[Dab][Dab]W; lactam 2-C) | 4 (≈ 3.5 µM) | 2 (≈ 1.75 µM) | 4 (≈ 3.5 µM) | 8 (≈ 7 µM) | 8 (≈ 7 µM) | 8 (≈ 7 µM) | 4 (≈ 3.5 µM) | 2 (≈ 1.75 µM) | 2 (≈ 1.75 µM) | 4 (≈ 3.5 µM) | 8 (≈ 7 µM) | 16 (≈ 14 µM) | 107 | 
4 | CCCCCCC[C@@H](O)CC(=O)NCC(=O)N[C@H]1CCNC(=O)[C@H](CC(C)C)NC(=O)[C@H](CCN)NC(=O)[C@H](CCN)NC(=O)[C@H](Cc2ccccc2)NC(=O)[C@@H](CC(C)C)NC(=O)[C@H](CCN)NC1=O [compound 6431, 3(R)OH-nC9CO-Gly-cyc[L-Dab-L-Dab-D-Leu-L-Phe-L-Dab-L-Dab-L-Leu]] ({Decanoyl(3R-OH)}-G[Dab][Dab][dL]F[Dab][Dab]L; lactam 2-C) | 2 (≈ 2 µM) |  | 8 (≈ 7.99 µM) | 4 (≈ 3.99 µM) | 8 (≈ 7.99 µM) | 8 (≈ 7.99 µM) | >32 | 8 (≈ 7.99 µM) | 4 (≈ 3.99 µM) | 16 (≈ 16 µM) | 32 (≈ 32 µM) | 32 (≈ 32 µM) | > 300 | MIC P. aeruginosa GN_043, PmxR ([2]; P. aeruginosa GN_043, PmxR): 8 µg/mL (≈ 7.99 µM)
5 | CCCCCCC[C@@H](O)CC(=O)N[C@H](CCN)C(=O)N[C@H]1CCNC(=O)[C@H](CC(C)C)NC(=O)[C@H](CCN)NC(=O)[C@H](CCN)NC(=O)[C@H](CC(C)C)NC(=O)[C@@H](Cc2ccccc2)NC(=O)[C@H](CCNC(=O)[C@@H](N)CCCNC(=N)N)NC1=O [compound 6655, 3(R)OH-nC9CO-D-Dab-cyc[L-Dab-L-Dab(L-Arg)-D-Phe-L-Leu-L-Dab-L-Dab-L-Leu]] ({Decanoyl(3R-OH)}-[dDab][Dab][Dab](Arg)[dF]L[Dab][Dab]L; lactam 2-C) |  |  |  |  |  |  |  |  |  |  |  |  | > 300 | MIC, K. pneumoniae Cl Koprana 10065 0661:1, PmxR [1]: 16 µg/mL (≈ 13.3 µM); MIC, P. aeruginosa FADDI-PA070, PmxR ([2]; Table 5, polymyxin-resistant): 4 µg/mL (≈ 3.33 µM); MIC, K. pneumoniae ATCC BAA-2146, NDM-1 pos [3]: 16 µg/mL (≈ 13.3 µM); MIC, K. pneumoniae Cl 138-16347-20362, PmxR [4]: >32 µg/mL; MIC, K. pneumoniae ATCC 700603, MDR [5]: 8 µg/mL (≈ 6.66 µM); MIC, K. pneumoniae ATCC 13883 (K. pneumoniae ATCC 13883): 32 µg/mL (≈ 26.7 µM); MIC, S. Aureus ATCC 25923, MSSA [6]: 16 µg/mL (≈ 13.3 µM); MIC, P. aeruginosa ATCC 27853 (P. aeruginosa ATCC 27853): 4 µg/mL (≈ 3.33 µM); MIC, P. aeruginosa PA9704, PmxR [7]: 4 µg/mL (≈ 3.33 µM); MIC, E. coli ATCC 25922 (E. coli ATCC 25922): 8 µg/mL (≈ 6.66 µM); MIC, A. baumannii ATCC 19606 (A. baumannii ATCC 19606): 32 µg/mL (≈ 26.7 µM); MIC, A. baumannii Cl Ptyela 10073 4512:2, PmxR (A. baumannii GN_093 PmxR): >32 µg/mL
6 | CCCCCCC[C@@H](O)CC(=O)N[C@H](CCN)C(=O)N[C@H]1CCNC(=O)[C@H](CC(C)C)NC(=O)[C@H](CN)NC(=O)[C@H](CCN)NC(=O)[C@H](CC(C)C)NC(=O)[C@@H](Cc2ccccc2)NC(=O)[C@H](CCN)NC1=O [compound 987, 3(R)OH-nC9CO-D-Dab-cyc[L-Dab-L-Dab-D-Phe-L-Leu-L-Dab-L-Dap-L-Leu]] ({Decanoyl(3R-OH)}-[dDab][Dab][Dab][dF]L[Dab][Dap]L; lactam 2-C) | 16 (≈ 15.5 µM) | 2 (≈ 1.94 µM) | 4 (≈ 3.88 µM) | 16 (≈ 15.5 µM) | 4 (≈ 3.88 µM) | 4 (≈ 3.88 µM) | 16 (≈ 15.5 µM) | 2 (≈ 1.94 µM) | 4 (≈ 3.88 µM) | 8 (≈ 7.76 µM) | 1 (≈ 0.971 µM) | 8 (≈ 7.76 µM) | > 300 | 
7 | CCCCCCCCC(=O)N[C@H](CN)C(=O)N[C@H]1CCNC(=O)[C@H](CC(C)C)NC(=O)[C@H](CCN)NC(=O)[C@H](CCN)NC(=O)[C@H](CC(C)C)NC(=O)[C@@H](Cc2ccccc2)NC(=O)[C@H](CCN)NC1=O [compound 9191, nC8CO-D-Dap-cyc[L-Dab-L-Dab-D-Phe-L-Leu-L-Dab-L-Dab-L-Leu]] (Nonanoyl-[dDap][Dab][Dab][dF]L[Dab][Dab]L; lactam 2-C) | 8 (≈ 8 µM) |  | 8 (≈ 8 µM) | 16 (≈ 16 µM) | 8 (≈ 8 µM) | 8 (≈ 8 µM) | 32 (≈ 32 µM) | 4 (≈ 4 µM) | 2 (≈ 2 µM) | 4 (≈ 4 µM) | >32 | >32 | > 300 | MIC P. aeruginosa GN_043, PmxR ([2]; P. aeruginosa GN_043, PmxR): 2 µg/mL (≈ 2 µM)
8 | CCCCCCC[C@@H](O)CC(=O)N[C@@H](CCN)C(=O)N[C@H]1CCNC(=O)[C@H](CC(C)C)NC(=O)[C@H](CN)NC(=O)[C@H](CCN)NC(=O)[C@H](CC(C)C)NC(=O)[C@@H](Cc2ccccc2)NC(=O)[C@H](CCN)NC1=O [compound 5564, 3(R)OH-nC9CO-L-Dab-cyc[L-Dab-L-Dab-D-Phe-L-Leu-L-Dab-L-Dap-L-Leu]] ({Decanoyl(3R-OH)}-[Dab][Dab][Dab][dF]L[Dab][Dap]L; lactam 2-C) | 4 (≈ 3.88 µM) | 2 (≈ 1.94 µM) | 8 (≈ 7.76 µM) | 8 (≈ 7.76 µM) | 16 (≈ 15.5 µM) | 8 (≈ 7.76 µM) | 32 (≈ 31.1 µM) | 2 (≈ 1.94 µM) | 32 (≈ 31.1 µM) | 8 (≈ 7.76 µM) | >32 | 32 (≈ 31.1 µM) | > 300 | 
